Experimental data: the supplement of paper PMC9265050, “Inhibition of RNA Binding in SND1 Increases the Levels of miR-1-3p and Sensitizes Cancer Cells to Navitoclax” (Cancers, 2022)

System: SW480
Test: drug sensitivity score (DSS, integrated dose-response area); higher = more sensitive (stronger viability reduction); extreme values may be limits of the assay
Method in brief: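 SW480 cells stably carrying doxycycline-inducible control or SND1-targeting shRNA were treated with 0.1 µg/mL doxycycline for 7 days. Cells were then seeded at 1000 per well into 384-well plates containing 525 commercially available small-molecule inhibitors at five concentrations, and viability was measured with CellTiter-Glo after 72 h. The drug sensitivity score integrates the area under a fitted non-linear dose–response model.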

[1] = shRNA: SND1 shRNA1 (SND1 silenced)
[2] = shRNA: SND1 shRNA2 (SND1 silenced)
[3] = shRNA: control shRNA (non-targeting)

Row | SMILES | drug sensitivity score [1] | drug sensitivity score [2] | drug sensitivity score [3]
1 | COC[C@H](NC(=O)c1cnc(C)s1)C(=O)N[C@@H](COC)C(=O)N[C@@H](Cc1ccccc1)C(=O)[C@@]1(C)CO1 [Oprozomib] | 17.7 DSS | 16.5 DSS | 19 DSS
2 | Cc1[nH]c(/C=C2\C(=O)Nc3ccccc32)c(C)c1CCC(=O)O [Orantinib] | 0 DSS | 0 DSS | 0.1 DSS
3 | CNC(=O)c1ccc2cc([C@@]3(O)CCn4cncc43)ccc2c1 [Orteronel] | 0 DSS | 0 DSS | 0 DSS
4 | C=CC(=O)Nc1cc(Nc2nccc(-c3cn(C)c4ccccc34)n2)c(OC)cc1N(C)CCN(C)C [Osimertinib] | 8.5 DSS | 3.6 DSS | 9.6 DSS
5 | O=C(O)C(=O)O.[NH-][C@@H]1CCCC[C@H]1[NH-].[Pt+2] [Oxaliplatin] | 14 DSS |  | 16.7 DSS
6 | C=CCc1cccc(/C=N/NC(=O)CN2CCN(Cc3ccccc3)CC2)c1O [PAC-1] | 6.8 DSS | 6.3 DSS | 7 DSS
7 | O=C(Nc1cccnc1)N1CCC(Cc2cccc(Oc3ccc(C(F)(F)F)cn3)c2)CC1 [PF-3845] | 0.1 DSS | 2.4 DSS | 0.3 DSS
8 | COc1ccccc1S(=O)(=O)Nc1ccc2c(c1)CN(C)C(=O)N2 [PFI-1] | 1.8 DSS | 0.5 DSS | 0.4 DSS
9 | CN1CCN(c2cc(C(=O)Nc3ccc4c(c3)-c3c(c(C(N)=O)nn3-c3ccc(F)cc3)CC4)c(Cl)cn2)CC1 [PHA 408] | 5.3 DSS |  | 5.2 DSS
10 | CCn1nnc2c(N3CCOCC3)nc(-c3ccc(NC(=O)Nc4ccc(C(=O)N5CCN(C)CC5)cc4)cc3)nc21 [PKI-402] | 6 DSS | 6.6 DSS | 8.2 DSS
11 | O=C(Nc1cc(Cl)cc2c1[nH]c1cnccc12)c1cccnc1 [PS-1145] | 0.4 DSS | 0 DSS | 1.8 DSS
12 | COc1cc(Br)c(Nc2nc(-c3c(C)nc4ncccn34)cs2)c(Br)c1 [PTC-209] | 6.7 DSS | 2.2 DSS | 7.1 DSS
13 | CC(=O)O[C@H]1C(=O)[C@@]2(C)[C@H]([C@H](OC(=O)c3ccccc3)[C@]3(O)C[C@H](OC(=O)[C@H](O)[C@@H](NC(=O)c4ccccc4)c4ccccc4)C(C)=C1C3(C)C)[C@]1(OC(C)=O)CO[C@@H]1C[C@@H]2O [Paclitaxel] | 11.5 DSS | 12.5 DSS | 14.1 DSS
14 | C1=N/C2=N/c3ccc(OCCN4CCCC4)c(c3)COC/C=C/COCc3cccc(c3)C(=C1)N2 [Pacritinib] | 9.6 DSS |  | 10 DSS
15 | CC(=O)c1c(C)c2cnc(Nc3ccc(N4CCNCC4)cn3)nc2n(C2CCCC2)c1=O [Palbociclib] | 10.6 DSS | 10.4 DSS | 6.6 DSS
16 | COc1ccc(COc2cc3oc(=O)c4cc(C(C)O)ccc4c3cc2OC)cc1 (stereo unspecified) [Palomid-529] | 0 DSS | 0 DSS | 1.7 DSS
17 | Cc1[nH]c2ccccc2c1CCNCc1ccc(/C=C/C(=O)NO)cc1 [Panobinostat] | 19.9 DSS | 19.2 DSS | 17.4 DSS
18 | C/C(=C\c1csc(C)n1)[C@@H]1C[C@@H]2O[C@]2(C)CCC[C@H](C)[C@H](O)[C@@H](C)C(=O)C(C)(C)[C@@H](O)CC(=O)O1 [Patupilone] | 17.9 DSS | 18.3 DSS | 18.4 DSS
19 | Cc1ccc(Nc2nccc(N(C)c3ccc4c(C)n(C)nc4c3)n2)cc1S(N)(=O)=O [Pazopanib] | 0.5 DSS | 7.1 DSS | 1.8 DSS
20 | CCOc1cc2ncc(C#N)c(Nc3ccc(F)c(Cl)c3)c2cc1NC(=O)/C=C/CN(C)C [Pelitinib] | 7.8 DSS | 8.6 DSS | 12.3 DSS
21 | Nc1nc2[nH]cc(CCc3ccc(C(=O)N[C@@H](CCC(=O)O)C(=O)O)cc3)c2c(=O)[nH]1 [Pemetrexed] | 9.9 DSS |  | 6.5 DSS
22 | OC[C@H]1O[C@@H](n2cnc3c2N=CNC[C@H]3O)C[C@@H]1O [Pentostatin] | 1.6 DSS | 3.5 DSS | 2.9 DSS
23 | CCCCCCCCCCCCCCCCCCOP(=O)([O-])OC1CC[N+](C)(C)CC1 [Perifosine] | 2.3 DSS |  | 3.7 DSS
24 | NS(=O)(=O)OC[C@@H]1C[C@@H](n2ccc3c(N[C@H]4CCc5ccccc54)ncnc32)C[C@@H]1O [Pevonedistat] | 4.5 DSS |  | 8.2 DSS

Row | SMILES | drug sensitivity score [1] | drug sensitivity score [2] | drug sensitivity score [3]
25 | FC(F)(F)c1ccc(CNc2ccc(Cc3c[nH]c4ncc(Cl)cc34)cn2)cn1 [Pexidartinib] | 0.3 DSS | 0.8 DSS | 0.7 DSS
26 | COc1ccc(Cl)c(Nc2nc3ccccc3nc2NS(=O)(=O)c2cccc(NC(=O)C(C)(C)N)c2)c1 [Pilaralisib] | 0.8 DSS | 0.7 DSS | 0.8 DSS
27 | CC[C@@H]1C(=O)OC[C@@H]1Cc1cncn1C [Pilocarpine] | 0.6 DSS | 0 DSS | 0.2 DSS
28 | O=C(NC[C@H](O)CO)c1ccncc1Nc1ccc(I)cc1F [Pimasertib] | 26.3 DSS | 16.5 DSS | 7.4 DSS
29 | CC(C)N(C[C@H]1O[C@@H](n2cnc3c(N)ncnc32)[C@H](O)[C@@H]1O)[C@H]1C[C@@H](CCc2nc3cc(C(C)(C)C)ccc3[nH]2)C1 [Pinometostat] | 0 DSS | 2.6 DSS | 0 DSS
30 | O=C(CCBr)N1CCN(C(=O)CCBr)CC1 [Pipobroman] | 0.1 DSS | 1.5 DSS | 0.1 DSS
31 | NCCNc1ccc(NCCN)c2c1C(=O)c1ccncc1C2=O [Pixantrone] | 0 DSS | 0 DSS | 0 DSS
32 | c1cc(CN2CCCNCCNCCCNCC2)ccc1CN1CCCNCCNCCCNCC1 [Plerixafor] | 0 DSS |  | 0 DSS
33 | CO[C@H](C(=O)[C@@H](O)[C@@H](C)O)[C@@H]1Cc2cc3cc(O[C@H]4C[C@@H](O[C@@H]5C[C@@H](O)[C@H](O)[C@@H](C)O5)[C@H](O)[C@@H](C)O4)c(C)c(O)c3c(O)c2C(=O)[C@H]1O[C@H]1C[C@@H](O[C@@H]2C[C@@H](O)[C@@H](O[C@@H]3C[C@](C)(O)[C@H](O)[C@@H](C)O3)[C@@H](C)O2)[C@H](O)[C@@H](C)O1 [Plicamycin] | 1.9 DSS | 0 DSS | 3.5 DSS
34 | Nc1cccc2c1C(=O)N(C1CCC(=O)NC1=O)C2=O (stereo unspecified) [Pomalidomide] | 0 DSS | 0 DSS | 0 DSS
35 | Cc1ccc(C(=O)Nc2ccc(CN3CCN(C)CC3)c(C(F)(F)F)c2)cc1C#Cc1cnc2cccnn12 [Ponatinib] | 5.9 DSS | 4.8 DSS | 4.4 DSS
36 | C=CC(=O)N1CCC(Oc2cc3c(Nc4ccc(Cl)c(Cl)c4F)ncnc3cc2OC)CC1 [Poziotinib] | 0.6 DSS | 4.1 DSS | 0.2 DSS
37 | CCCCc1nc2cc(/C=C/C(=O)NO)ccc2n1CCN(CC)CC [Pracinostat] | 21.1 DSS | 17.2 DSS | 19.3 DSS
38 | CC[C@H](C)C(=O)O[C@H]1C[C@H](O)C=C2C=C[C@H](C)[C@H](CC[C@@H](O)C[C@@H](O)CC(=O)O)[C@H]21 [Pravastatin] | 0 DSS |  | 3.1 DSS
39 | C[C@]12C=CC(=O)C=C1CC[C@@H]1[C@@H]2[C@@H](O)C[C@@]2(C)[C@H]1CC[C@]2(O)C(=O)CO [Prednisolone] | 0 DSS | 0 DSS | 0 DSS
40 | C[C@]12C=CC(=O)C=C1CC[C@@H]1[C@@H]2C(=O)C[C@@]2(C)[C@H]1CC[C@]2(O)C(=O)CO [Prednisone] | 0.5 DSS | 0.1 DSS | 2.9 DSS
41 | COc1cccc(OCCCN)c1-c1cc(Nc2cnc(C#N)cn2)n[nH]1 [Prexasertib] | 29.1 DSS | 26.2 DSS | 28.1 DSS
42 | CNNCc1ccc(C(=O)NC(C)C)cc1 [Procarbazine] | 0 DSS | 0 DSS | 0 DSS
43 | Cc1cc(-c2ncc(-c3cccnc3)cc2/C=C/c2ccccc2)cnc1-c1cccnc1 [Pyridoclax] | 4.1 DSS | 2.7 DSS | 0.2 DSS
44 | Cn1cc(CNCC2CCN(c3ncc(C(=O)NO)cn3)CC2)c2ccccc21 [Quisinostat] | 14.9 DSS | 14.6 DSS | 13.6 DSS
45 | CC(C)(C)c1cc(NC(=O)Nc2ccc(-c3cn4c(n3)sc3cc(OCCN5CCOCC5)ccc34)cc2)no1 [Quizartinib] | 0 DSS | 0 DSS | 0 DSS
46 | Cn1c(Nc2ccc(C(F)(F)F)cc2)nc2cc(Oc3ccnc(-c4ncc(C(F)(F)F)[nH]4)c3)ccc21 [RAF265] | 0 DSS | 1.8 DSS | 2 DSS
47 | CNC(=O)c1ccc(N2C(=S)N(c3ccc(C#N)c(C(F)(F)F)c3)C(=O)C23CCC3)cc1F [RD162] | 0.3 DSS | 2.7 DSS | 0.8 DSS
48 | CCNC(=O)Nc1ccc(-c2nc3c(c(N4CCOC[C@@H]4C)n2)CCN(C2COC2)C3)cc1 [RG-7603] | 0.7 DSS | 1.3 DSS | 0.7 DSS
